The values that follow come from patent US10172905B1, “Treatment of protein degradation disorders” (President and Fellows of Harvard College, priority 2005, dated 2019).

“Also recorded” adds a separate entry of the source.

What all share (assay type): cell-based
Test [1] deals with tubulin acetylation versus lysine acetylation. As to the kind of experiment: Immunofluorescence assay for acetylated tubulin versus acetylated lysine. The source says: The present invention provides an immunofluorescence-based assay for identifying test agents with HDAC and/or TDAC inhibitory activity. The inventive assay is based on the use of specific antibodies for acetylated tubulin and acetylated lysine (i.e., a marker for acetylated histones). […] As described above, any type of agent, including small molecules, polymers, biomolecules, proteins, peptides, polynucleotides, etc., may be screened using the inventive assay. In certain embodiments, small molecules are screened. In certain particular embodiments, the small molecules are tubacin-like or are tubacin derivatives. In certain embodiments, the small molecules are compounds of the present invention. The test agents may also be small molecules purchased, prepared through traditional synthetic techniques, prepared through combinatorial chemistry techniques, or obtained from historical chemical collections. In certain embodiments, the test agents are biomolecules. In other embodiments, the test agents are proteins or peptides. In yet other embodiments, the test agents are polynucleotides. In certain embodiments, the test agents are polymers.
The assay involves contacting cells with a specific concentration of the test agent under specific conditions. […] There particular parameters may be determined by the operator or scientist conducting the assay as would be appreciated by one of skill in this art. After a determined time of incubation with the test compound, the cells are treated with a first primary antibody directed against acetylated tubulin and a second primary antibody directed against acetylated lysine. […] The signal from each of the secondary antibodies is measured and optionally quantitated to determine the amount of TDAC and HDAC inhibition under the specified conditions with the test agent. Optionally, the extent of inhibition is determined relative to a control in which no test agent was added. In certain embodiments, the secondary antibody is left out and the primary antibodies are uniquely labeled for identification and optionally quantification. […]

A further test relates to MM.1S and RPMI cells. As to the kind of experiment: Synergy with Velcade/Bortezomib in myeloma cell lines.
Test [2] has as its target T1, interaction of HDAC6 with dynein (Homo sapiens, UniProt Q9UBN7).
T1 sequence (Q9UBN7 1-1215): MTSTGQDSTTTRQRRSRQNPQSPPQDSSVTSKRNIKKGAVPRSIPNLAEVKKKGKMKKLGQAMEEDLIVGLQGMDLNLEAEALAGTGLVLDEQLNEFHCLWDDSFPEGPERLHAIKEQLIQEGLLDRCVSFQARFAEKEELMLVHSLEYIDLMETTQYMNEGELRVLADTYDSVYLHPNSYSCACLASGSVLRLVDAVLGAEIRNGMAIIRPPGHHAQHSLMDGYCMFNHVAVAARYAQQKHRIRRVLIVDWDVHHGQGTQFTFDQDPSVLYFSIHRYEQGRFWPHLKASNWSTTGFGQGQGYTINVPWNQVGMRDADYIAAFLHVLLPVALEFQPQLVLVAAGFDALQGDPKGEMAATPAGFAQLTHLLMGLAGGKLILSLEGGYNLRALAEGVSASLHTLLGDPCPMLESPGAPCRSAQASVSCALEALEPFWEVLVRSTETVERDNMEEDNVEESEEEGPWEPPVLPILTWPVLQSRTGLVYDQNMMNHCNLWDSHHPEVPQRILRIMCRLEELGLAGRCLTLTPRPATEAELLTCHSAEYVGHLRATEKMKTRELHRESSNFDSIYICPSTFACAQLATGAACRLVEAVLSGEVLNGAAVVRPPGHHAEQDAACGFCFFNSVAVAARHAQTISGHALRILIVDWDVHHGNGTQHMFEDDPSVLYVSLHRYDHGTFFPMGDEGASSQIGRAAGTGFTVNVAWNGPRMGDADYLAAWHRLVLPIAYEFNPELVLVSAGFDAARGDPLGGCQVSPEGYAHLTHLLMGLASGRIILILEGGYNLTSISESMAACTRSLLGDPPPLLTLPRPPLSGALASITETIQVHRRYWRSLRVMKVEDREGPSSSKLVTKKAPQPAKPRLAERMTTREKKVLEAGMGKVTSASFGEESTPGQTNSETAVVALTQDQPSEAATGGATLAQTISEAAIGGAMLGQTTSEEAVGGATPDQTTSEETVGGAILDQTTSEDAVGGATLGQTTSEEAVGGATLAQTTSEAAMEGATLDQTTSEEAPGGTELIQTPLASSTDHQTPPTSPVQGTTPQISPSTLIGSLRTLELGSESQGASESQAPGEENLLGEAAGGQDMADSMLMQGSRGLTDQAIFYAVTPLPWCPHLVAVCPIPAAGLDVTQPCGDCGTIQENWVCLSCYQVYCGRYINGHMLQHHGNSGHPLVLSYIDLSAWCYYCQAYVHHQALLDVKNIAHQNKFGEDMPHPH
As to the kind of experiment: Co-immunoprecipitation of HDAC6 with dynein or ubiquitinated proteins. The note with it: tubacin 2.5 and 5 μM, 8 h, MM.1S cells. As for the experimental part:
Cells cultured with tubacin and/or bortezomib were harvested; washed, and lysed using lysis buffer: 50 mM Tris-HCl (pH 7.4), 150 mM NaCl, 1% NP-40, 5 mM EDTA, 5 mM NaF, 1 mM Na3VO4, 1 mM PMSF, 5 μg/ml leupeptine, and 5 μg/ml aprotinin. Whole cell lysates were subjected to SDS-PAGE, transferred to nitrocellulose membrane (Bio-Rad Laboratories, Hercules, Calif.), and immunoblotted with specific Abs (31). Western blotting was done using anti-HDAC6, acetylated lysine, acetylated histone H3, acetylated histone H4, ubiquitin (Ub), phospho-SAPK (JNK), caspase-8 caspase-9, caspase-3, and PARP Abs (Cell Signaling, Beverly, Mass.); with anti-α-tubulin Ab (Santa Cruz Biotechnology, Santa Cruz, Calif.); as well as with anti-dynein Ab (Sigma, Saint Louis, Mo.). For immunoprecipitation, whole cell lysates were incubated with anti-Ub or dynein Abs overnight at 4° C., and then incubated with protein A/G PLUS-Agarose (Santa Cruz Biotechnology) for 2 h at 4° C., as in our prior study (31). Immunoprecipitates were then subjected to Western blotting for detection of HDAC6 and dynein.

For the compound `O=C(CCCCCCC(=O)Nc1ccc([C@H]2O[C@@H](CSc3nc(-c4ccccc4)c(-c4ccccc4)o3)C[C@@H](c3ccc(CO)cc3)O2)cc1)NO` [tubacin], the “specificity for tubulin acetylation versus lysine acetylation” value in test [1] (A549 cells) and in test [1] (cells not given) was “specificity” each time. Moreover, the “synergy with Velcade” value with MM.1S and RPMI cells (MM.1S and RPMI cells) is listed as “synergy”. Also, the “toxicity and synergy with Bortezomib” value is “toxicity and synergy” in the test with MM.1S and RPMI cells (MM.1S cells); “toxicity and synergy” with MM.1S and RPMI cells (RPMI-8226 cells). For the same compound, the “co-immunoprecipitation between HDAC6 and ubiquitinated proteins” value in test [2] is listed as “unaffected”. The “co-immunoprecipitation of HDAC6 with dynein” value in test [2] is listed as “markedly inhibited in a dose-dependent fashion; also recorded: inhibits binding of HDAC6 with dynein”.
